Results from patent publication US20240325398A1, “COMBINATION THERAPIES” (Infinity Pharmaceuticals, Inc., priority 2014, published 2024).

Experiments:
DOHH2 = test: Compound 1 with dexamethasone, CellTiter-Glo viability 72 h, combination index; format: cell-based; settings: DOHH2
Experimental: The effects of Compound 1 with dexamethasone were examined in a panel of cell lines. Cells were cultured and assayed as follows. Compound 1 was serially diluted with cell culture medium and various DMSO concentrations. The top concentration of Compound 1 exposed to cells was 3 uM for cell lines other than WSU-NHL and DOHH2. For WSU-NHL and DOHH2 cell lines, the top concentration of Compound 1 exposed to the cells was 0.3 uM. Dexamethasone was serially diluted in culture media and phosphate buffered saline (PBS). The top concentration of dexamethasone used on cells was 3 uM. Cells were at least 73% viable and were counted and diluted for plating at a density of about 92,000 cell/mL, 130 uL cells per well in 96 well plates for SUDHL6, Karpas 422, SUDHL4, WSU-NHL, RL, and DOHH2 cell lines. The SUDHL10 cell line was plated at a density of about 46,000 cells/mL, 130 uL cells per well in 96 well plates.
Various concentrations of Compound 1 and various combinations of dexamethasone were added to various wells of cells. Single agents (Compound 1 or dexamethasone alone) were also added to some wells of cells. Cells were incubated with compounds for 72 hours. To assay for effects of the compounds on cell viability, a CellTiter-Glo® luminescent cell viability assay (commercially available) was used. To each plate of cells, 100 uL CellTiter-Glo reagent was added, incubated, and luminescence quantified using a […].
The results for cell line DOHH2 are depicted in FIG. 11 and Table 11. […] Table 11 depicts combination index (CI) values for different combinations of dexamethasone/Compound 1 concentrations.

OCI-Ly7 = test: Combination study, ATPLite 72 h, dose matrix (Synergy Score, CI50)
Experimental: Cells are thawed from a liquid nitrogen preserved state. Once cells have been expanded and divide at their expected doubling times, screening begins. Cells are seeded in growth media in either black 1536-well or 384-well tissue culture treated plates. Cells are then equilibrated in assay plates via centrifugation and placed in incubators attached to the Dosing Modules at 37° C. for 24 hours before treatment. […] These Tzero (To) plates are read using ultra-sensitive luminescence on Envision plate readers (Perkin Elmer). Treated assay plates are incubated with compound for 72 hours. After 72 hours, plates are developed for endpoint analysis using ATPLite. All data points are collected via automated processes, quality controlled and analyzed using Zalicus software.
The measure of effect in the experiment can be the inhibition of cellular response relative to the untreated level (vehicle alone). […] The inhibition ranges from 0% at the untreated level to 100% when T=0. Inhibition levels are negative for agents that actually increase levels.
Growth Inhibition (GI) is used as a measure of cell viability. […] A GI reading of 100% represents complete growth inhibition—T72 compound-treated and T0 vehicle signals are matched. […] A GI reading of 200% represents complete death of all cells in the culture well. Compounds reaching an activity plateau of GI 200% are considered cytotoxic. GI is calculated by applying the following test and equation:
Combination analysis data were collected in a 6×6 dose matrix. Synergy is calculated by comparing a combination's response to those of its single compound, against the drug-with-itself dose-additive reference model. Deviations from dose additivity may be assessed visually on an isobologram or numerically with a Combination Index (CI). […] Additive effect is CI=1.0. […] Antagonistic effect is CI>1.0.
To measure combination effects in excess of Loewe additivity, a scalar measure to characterize the strength of synergistic interaction termed the Synergy Score is devised. The Synergy Score is calculated as:
The fractional inhibition for each component agent and combination point in the matrix is calculated relative to the median of all vehicle-treated control wells. The Synergy Score equation integrates the experimentally-observed activity volume at each point in the matrix in excess of a model surface numerically derived from the activity of the component agents using the Loewe model for additivity. Additional terms in the Synergy Score equation (above) are used to normalize for various dilution factors used for individual agents and to allow for comparison of synergy scores across an entire experiment. The inclusion of positive inhibition gating or an Idata multiplier removes noise near the zero effect level, and biases results for synergistic interactions at that occur at high activity levels.
Loewe Volume (Loewe Vol) is used to assess the overall magnitude of the combination interaction in excess of the Loewe additivity model. Loewe Volume is particularly useful when distinguishing synergistic increases in a phenotypic activity (positive Loewe Volume) versus synergistic antagonisms (negative Loewe Volume). […] This model defines additivity as a non-synergistic combination interaction where the combination dose matrix surface should be indistinguishable from either drug crossed with itself. The calculation for Loewe additivity is:

SU-DHL-4-epst = test: as above

Compound: C[C@H](Nc1ncnc2[nH]cnc12)c1cc2cccc(Cl)c2c(=O)n1-c1ccccc1 [Compound 1, (S)-3-(1-((9H-purin-6-yl)amino)ethyl)-8-chloro-2-phenylisoquinolin-1(2H)-one]
- combination index (CI) (DOHH2; Compound 1 0.137174 nM + Dexamethasone 1.371742 nM): E (E = >1)
- combination index (CI) (DOHH2; Compound 1 0.137174 nM + Dexamethasone 4.115226 nM): E (E = >1)
- combination index (CI) (DOHH2; Compound 1 0.137174 nM + Dexamethasone 12.34568 nM): E (E = >1)
- combination index (CI) (DOHH2; Compound 1 0.137174 nM + Dexamethasone 37.03704 nM): E (E = >1)
- combination index (CI) (DOHH2; Compound 1 0.137174 nM + Dexamethasone 111.1111 nM): C (C = 0.5 to <0.7)
- combination index (CI) (DOHH2; Compound 1 0.137174 nM + Dexamethasone 333.3333 nM): A (A = 0.0001 to <0.3)
- combination index (CI) (DOHH2; Compound 1 0.137174 nM + Dexamethasone 1000 nM): A (A = 0.0001 to <0.3)
- combination index (CI) (DOHH2; Compound 1 0.137174 nM + Dexamethasone 3000 nM): A (A = 0.0001 to <0.3)
- combination index (CI) (DOHH2; Compound 1 0.411523 nM + Dexamethasone 1.371742 nM): E (E = >1)
- combination index (CI) (DOHH2; Compound 1 0.411523 nM + Dexamethasone 4.115226 nM): E (E = >1)
- combination index (CI) (DOHH2; Compound 1 0.411523 nM + Dexamethasone 12.34568 nM): E (E = >1)
- combination index (CI) (DOHH2; Compound 1 0.411523 nM + Dexamethasone 37.03704 nM): E (E = >1)
- combination index (CI) (DOHH2; Compound 1 0.411523 nM + Dexamethasone 111.1111 nM): C (C = 0.5 to <0.7)
- combination index (CI) (DOHH2; Compound 1 0.411523 nM + Dexamethasone 333.3333 nM): B (B = 0.3 to <0.5)
- combination index (CI) (DOHH2; Compound 1 0.411523 nM + Dexamethasone 1000 nM): A (A = 0.0001 to <0.3)
- combination index (CI) (DOHH2; Compound 1 0.411523 nM + Dexamethasone 3000 nM): A (A = 0.0001 to <0.3)
- combination index (CI) (DOHH2; Compound 1 1.234568 nM + Dexamethasone 1.371742 nM): E (E = >1)
- combination index (CI) (DOHH2; Compound 1 1.234568 nM + Dexamethasone 4.115226 nM): E (E = >1)
- combination index (CI) (DOHH2; Compound 1 1.234568 nM + Dexamethasone 12.34568 nM): E (E = >1)
- combination index (CI) (DOHH2; Compound 1 1.234568 nM + Dexamethasone 37.03704 nM): E (E = >1)
- combination index (CI) (DOHH2; Compound 1 1.234568 nM + Dexamethasone 111.1111 nM): B (B = 0.3 to <0.5)
- combination index (CI) (DOHH2; Compound 1 1.234568 nM + Dexamethasone 333.3333 nM): A (A = 0.0001 to <0.3)
- combination index (CI) (DOHH2; Compound 1 1.234568 nM + Dexamethasone 1000 nM): A (A = 0.0001 to <0.3)
- combination index (CI) (DOHH2; Compound 1 1.234568 nM + Dexamethasone 3000 nM): A (A = 0.0001 to <0.3)
- combination index (CI) (DOHH2; Compound 1 3.703704 nM + Dexamethasone 1.371742 nM): B (B = 0.3 to <0.5)
- combination index (CI) (DOHH2; Compound 1 3.703704 nM + Dexamethasone 4.115226 nM): E (E = >1)
- combination index (CI) (DOHH2; Compound 1 3.703704 nM + Dexamethasone 12.34568 nM): E (E = >1)
- combination index (CI) (DOHH2; Compound 1 3.703704 nM + Dexamethasone 37.03704 nM): D (D = 0.7 to <1)
- combination index (CI) (DOHH2; Compound 1 3.703704 nM + Dexamethasone 111.1111 nM): A (A = 0.0001 to <0.3)
- combination index (CI) (DOHH2; Compound 1 3.703704 nM + Dexamethasone 333.3333 nM): A (A = 0.0001 to <0.3)
- combination index (CI) (DOHH2; Compound 1 3.703704 nM + Dexamethasone 1000 nM): A (A = 0.0001 to <0.3)
- combination index (CI) (DOHH2; Compound 1 3.703704 nM + Dexamethasone 3000 nM): A (A = 0.0001 to <0.3)
- combination index (CI) (DOHH2; Compound 1 11.11111 nM + Dexamethasone 1.371742 nM): B (B = 0.3 to <0.5)
- combination index (CI) (DOHH2; Compound 1 11.11111 nM + Dexamethasone 4.115226 nM): E (E = >1)
- combination index (CI) (DOHH2; Compound 1 11.11111 nM + Dexamethasone 12.34568 nM): E (E = >1)
- combination index (CI) (DOHH2; Compound 1 11.11111 nM + Dexamethasone 37.03704 nM): C (C = 0.5 to <0.7)
- combination index (CI) (DOHH2; Compound 1 11.11111 nM + Dexamethasone 111.1111 nM): A (A = 0.0001 to <0.3)
- combination index (CI) (DOHH2; Compound 1 11.11111 nM + Dexamethasone 333.3333 nM): A (A = 0.0001 to <0.3)
- combination index (CI) (DOHH2; Compound 1 11.11111 nM + Dexamethasone 1000 nM): A (A = 0.0001 to <0.3)
- combination index (CI) (DOHH2; Compound 1 11.11111 nM + Dexamethasone 3000 nM): A (A = 0.0001 to <0.3)
- combination index (CI) (DOHH2; Compound 1 33.33333 nM + Dexamethasone 1.371742 nM): B (B = 0.3 to <0.5)
- combination index (CI) (DOHH2; Compound 1 33.33333 nM + Dexamethasone 4.115226 nM): B (B = 0.3 to <0.5)
- combination index (CI) (DOHH2; Compound 1 33.33333 nM + Dexamethasone 12.34568 nM): D (D = 0.7 to <1)
- combination index (CI) (DOHH2; Compound 1 33.33333 nM + Dexamethasone 37.03704 nM): A (A = 0.0001 to <0.3)
- combination index (CI) (DOHH2; Compound 1 33.33333 nM + Dexamethasone 111.1111 nM): A (A = 0.0001 to <0.3)
- combination index (CI) (DOHH2; Compound 1 33.33333 nM + Dexamethasone 333.3333 nM): A (A = 0.0001 to <0.3)
- combination index (CI) (DOHH2; Compound 1 33.33333 nM + Dexamethasone 1000 nM): A (A = 0.0001 to <0.3)
- combination index (CI) (DOHH2; Compound 1 33.33333 nM + Dexamethasone 3000 nM): A (A = 0.0001 to <0.3)
- combination index (CI) (DOHH2; Compound 1 100 nM + Dexamethasone 1.371742 nM): B (B = 0.3 to <0.5)
- combination index (CI) (DOHH2; Compound 1 100 nM + Dexamethasone 4.115226 nM): A (A = 0.0001 to <0.3)
- combination index (CI) (DOHH2; Compound 1 100 nM + Dexamethasone 12.34568 nM): C (C = 0.5 to <0.7)
- combination index (CI) (DOHH2; Compound 1 100 nM + Dexamethasone 37.03704 nM): A (A = 0.0001 to <0.3)
- combination index (CI) (DOHH2; Compound 1 100 nM + Dexamethasone 111.1111 nM): A (A = 0.0001 to <0.3)
- combination index (CI) (DOHH2; Compound 1 100 nM + Dexamethasone 333.3333 nM): A (A = 0.0001 to <0.3)
- combination index (CI) (DOHH2; Compound 1 100 nM + Dexamethasone 1000 nM): A (A = 0.0001 to <0.3)
- combination index (CI) (DOHH2; Compound 1 100 nM + Dexamethasone 3000 nM): A (A = 0.0001 to <0.3)
- combination index (CI) (DOHH2; Compound 1 300 nM + Dexamethasone 1.371742 nM): B (B = 0.3 to <0.5)
- combination index (CI) (DOHH2; Compound 1 300 nM + Dexamethasone 4.115226 nM): B (B = 0.3 to <0.5)
- combination index (CI) (DOHH2; Compound 1 300 nM + Dexamethasone 12.34568 nM): A (A = 0.0001 to <0.3)
- combination index (CI) (DOHH2; Compound 1 300 nM + Dexamethasone 37.03704 nM): A (A = 0.0001 to <0.3)
- combination index (CI) (DOHH2; Compound 1 300 nM + Dexamethasone 111.1111 nM): A (A = 0.0001 to <0.3)
- combination index (CI) (DOHH2; Compound 1 300 nM + Dexamethasone 333.3333 nM): A (A = 0.0001 to <0.3)
- combination index (CI) (DOHH2; Compound 1 300 nM + Dexamethasone 1000 nM): A (A = 0.0001 to <0.3)
- combination index (CI) (DOHH2; Compound 1 300 nM + Dexamethasone 3000 nM): A (A = 0.0001 to <0.3)
- CI50 growth inhibition (OCI-Ly7; combination with Dexamethasone): S (S=0.01 to <0.5)
- CI50 inhibition (OCI-Ly7; combination with Dexamethasone): S (S=0.01 to <0.5)
- Synergy Score growth inhibition (OCI-Ly7; combination with Dexamethasone): A3 (A3=>3)
- Synergy Score inhibition (OCI-Ly7; combination with Dexamethasone): A2 (A2=1 to <3)
- CI50 growth inhibition (OCI-Ly7; combination with LEE011): U (U=0.7 to <1)
- CI50 inhibition (OCI-Ly7; combination with LEE011): W (W=≥1)
- Synergy Score growth inhibition (OCI-Ly7; combination with LEE011): A2 (A2=1 to <3)
- Synergy Score inhibition (OCI-Ly7; combination with LEE011): A1 (A1=0.0001 to <1)
- CI50 growth inhibition (OCI-Ly7; combination with PCI-32765): W (W=≥1)
- Synergy Score growth inhibition (OCI-Ly7; combination with PCI-32765): A2 (A2=1 to <3)
- Synergy Score inhibition (OCI-Ly7; combination with PCI-32765): A1 (A1=0.0001 to <1)
- CI50 growth inhibition (OCI-Ly7; combination with PD-0332991): T (T=0.5 to <0.7)
- CI50 inhibition (OCI-Ly7; combination with PD-0332991): S (S=0.01 to <0.5)
- Synergy Score growth inhibition (OCI-Ly7; combination with PD-0332991): A2 (A2=1 to <3)
- Synergy Score inhibition (OCI-Ly7; combination with PD-0332991): A2 (A2=1 to <3)
- CI50 growth inhibition (SU-DHL-4-epst; combination with Dexamethasone): S (S=0.01 to <0.5)
- CI50 inhibition (SU-DHL-4-epst; combination with Dexamethasone): S (S=0.01 to <0.5)
- Synergy Score growth inhibition (SU-DHL-4-epst; combination with Dexamethasone): A3 (A3=>3)
- Synergy Score inhibition (SU-DHL-4-epst; combination with Dexamethasone): A3 (A3=>3)
- CI50 growth inhibition (SU-DHL-4-epst; combination with LEE011): S (S=0.01 to <0.5)
- CI50 inhibition (SU-DHL-4-epst; combination with LEE011): S (S=0.01 to <0.5)
- Synergy Score growth inhibition (SU-DHL-4-epst; combination with LEE011): A2 (A2=1 to <3)
